Assays:
[1] = DRUGMATRIX: beta-Lactamase enzyme inhibition (substrate: Nitrocefin); parameters: species or system Bacillus cereus; details: Not Active = under 50% inhibition at 10 µM
B2 bradykinin receptor = target: T1, B2 bradykinin receptor (Homo sapiens, UniProt P30411); format: cell membranes, Membrane; details: chem-1; further: in other assays of this panel Not Active means under 50% inhibition at 10 µM
T1 sequence (P30411 whole entry): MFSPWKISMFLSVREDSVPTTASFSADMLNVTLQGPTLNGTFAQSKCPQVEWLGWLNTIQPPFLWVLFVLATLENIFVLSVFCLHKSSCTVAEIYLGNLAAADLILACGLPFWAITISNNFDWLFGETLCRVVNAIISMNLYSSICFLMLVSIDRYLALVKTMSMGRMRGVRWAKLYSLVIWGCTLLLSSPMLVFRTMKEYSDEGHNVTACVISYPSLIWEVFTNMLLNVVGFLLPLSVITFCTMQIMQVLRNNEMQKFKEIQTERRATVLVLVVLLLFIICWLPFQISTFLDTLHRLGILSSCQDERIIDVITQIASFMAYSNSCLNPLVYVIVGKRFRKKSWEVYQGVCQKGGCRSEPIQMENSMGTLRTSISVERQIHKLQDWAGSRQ

[2] = DRUGMATRIX: Glutamate, Kainate radioligand binding (ligand: [3H] Kainic acid); format: cell membranes, Rattus norvegicus, Wistar, Brain, Membrane; details: Not Active = under 50% inhibition at 10 µM
[3] = DRUGMATRIX: Glutamate, NMDA, Phencyclidine radioligand binding (ligand: [3H] TCP); format: cell membranes, Rattus norvegicus, Wistar, Cerebral cortex, Membrane; details: Not Active = under 50% inhibition at 10 µM
[4] = DRUGMATRIX: Imidazoline I2, Central radioligand binding (ligand: [3H] Idazoxan); format: cell membranes, Rattus norvegicus, Wistar, Cerebral cortex, Membrane; details: Not Active = under 50% inhibition at 10 µM
[5] = target: T2, Neuropeptide Y receptor type 1 (Homo sapiens, UniProt P25929); format: cell membranes, Membrane; details: sk-n-mc; further: in other assays of this panel Not Active means under 50% inhibition at 10 µM
T2 sequence (P25929 whole entry): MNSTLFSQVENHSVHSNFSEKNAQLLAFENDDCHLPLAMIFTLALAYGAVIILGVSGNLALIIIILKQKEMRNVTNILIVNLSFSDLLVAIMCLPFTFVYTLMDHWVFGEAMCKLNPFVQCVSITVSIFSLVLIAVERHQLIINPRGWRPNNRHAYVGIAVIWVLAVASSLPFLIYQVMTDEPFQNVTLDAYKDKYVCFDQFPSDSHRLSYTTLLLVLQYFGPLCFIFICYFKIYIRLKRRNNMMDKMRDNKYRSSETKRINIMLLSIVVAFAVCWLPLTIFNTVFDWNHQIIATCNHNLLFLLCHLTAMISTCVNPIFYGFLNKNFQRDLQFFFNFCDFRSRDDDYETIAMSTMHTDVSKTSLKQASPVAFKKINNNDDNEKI

[6] = target: T3, Neuropeptide Y receptor type 2 (Homo sapiens, UniProt P49146); format: cell membranes, Membrane; details: kan-ts; further: in other assays of this panel Not Active means under 50% inhibition at 10 µM
T3 sequence (P49146 whole entry): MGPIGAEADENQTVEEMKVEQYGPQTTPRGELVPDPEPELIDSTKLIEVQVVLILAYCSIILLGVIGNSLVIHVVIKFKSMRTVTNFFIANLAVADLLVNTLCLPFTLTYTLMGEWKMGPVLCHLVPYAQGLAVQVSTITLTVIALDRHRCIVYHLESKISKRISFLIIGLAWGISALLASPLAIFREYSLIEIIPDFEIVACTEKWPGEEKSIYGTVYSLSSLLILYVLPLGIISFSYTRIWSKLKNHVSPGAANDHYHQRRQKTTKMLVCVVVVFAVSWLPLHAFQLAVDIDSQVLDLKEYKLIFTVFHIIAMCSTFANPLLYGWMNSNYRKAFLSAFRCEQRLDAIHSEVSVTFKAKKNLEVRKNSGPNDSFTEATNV

[7] = target: T4, Angiotensin-converting enzyme (Oryctolagus cuniculus, UniProt P12822); test: biochemical; format: tissue-based, Lung;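 further: enzymatic inhibition of angiotensin-converting enzyme measured with FAPGG as the substrate; in other assays of this panel Not Active means under 50% inhibition at 10 µM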
T4 sequence (P12822 whole entry): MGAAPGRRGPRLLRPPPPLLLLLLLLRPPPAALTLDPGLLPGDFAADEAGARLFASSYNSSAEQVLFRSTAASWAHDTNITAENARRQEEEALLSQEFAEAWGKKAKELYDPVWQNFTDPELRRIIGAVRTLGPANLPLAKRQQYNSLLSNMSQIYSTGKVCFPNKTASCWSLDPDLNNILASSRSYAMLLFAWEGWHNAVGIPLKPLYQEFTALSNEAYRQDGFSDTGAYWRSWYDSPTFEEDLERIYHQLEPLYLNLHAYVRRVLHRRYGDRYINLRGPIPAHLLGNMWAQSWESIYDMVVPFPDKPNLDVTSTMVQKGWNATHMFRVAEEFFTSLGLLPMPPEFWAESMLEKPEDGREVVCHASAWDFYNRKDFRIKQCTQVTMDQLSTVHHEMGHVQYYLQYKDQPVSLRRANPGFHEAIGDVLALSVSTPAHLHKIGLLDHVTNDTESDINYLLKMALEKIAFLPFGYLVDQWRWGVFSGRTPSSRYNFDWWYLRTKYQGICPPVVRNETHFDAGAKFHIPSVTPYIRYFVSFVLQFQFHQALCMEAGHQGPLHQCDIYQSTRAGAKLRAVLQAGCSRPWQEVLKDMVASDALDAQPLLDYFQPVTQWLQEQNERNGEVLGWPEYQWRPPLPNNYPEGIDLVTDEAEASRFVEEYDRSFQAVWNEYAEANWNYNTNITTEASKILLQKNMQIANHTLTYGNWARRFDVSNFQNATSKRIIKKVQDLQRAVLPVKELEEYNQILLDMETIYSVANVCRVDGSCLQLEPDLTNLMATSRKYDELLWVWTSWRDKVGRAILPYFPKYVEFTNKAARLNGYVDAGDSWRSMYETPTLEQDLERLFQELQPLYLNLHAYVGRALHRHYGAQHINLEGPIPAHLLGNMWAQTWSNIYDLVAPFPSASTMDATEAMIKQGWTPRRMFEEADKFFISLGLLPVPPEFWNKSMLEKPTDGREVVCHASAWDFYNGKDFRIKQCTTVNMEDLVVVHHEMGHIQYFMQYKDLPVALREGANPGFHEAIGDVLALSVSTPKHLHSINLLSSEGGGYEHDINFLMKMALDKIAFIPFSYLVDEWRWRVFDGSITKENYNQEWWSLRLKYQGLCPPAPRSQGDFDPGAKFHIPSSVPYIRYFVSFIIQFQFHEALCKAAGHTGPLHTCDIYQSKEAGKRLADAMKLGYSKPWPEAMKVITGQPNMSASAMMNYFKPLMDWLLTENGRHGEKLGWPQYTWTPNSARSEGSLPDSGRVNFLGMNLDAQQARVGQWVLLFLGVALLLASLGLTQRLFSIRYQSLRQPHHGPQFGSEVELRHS

c1ccc2sc(SSc3nc4ccccc4s3)nc2c1 [BENZOTHIAZYL DISULFIDE]
Not Active: IC50 [1] | Ki [1] | IC50 (B2 bradykinin receptor) | IC50 [2] | Ki [2] | IC50 [3] | Ki [3] | IC50 [4] | Ki [4] | IC50 [5] | IC50 [6] | IC50 [7]

CC(C)(C#N)c1cc(Cn2cncn2)cc(C(C)(C)C#N)c1 [ANASTROZOLE]
Not Active: IC50 [1] | Ki [1] | IC50 (B2 bradykinin receptor) | IC50 [2] | Ki [2] | IC50 [3] | Ki [3] | IC50 [4] | Ki [4] | IC50 [5] | IC50 [6] | IC50 [7]

CC(=O)[C@]1(O)Cc2c(O)c3c(c(O)c2[C@@H](O[C@H]2C[C@H](N)[C@H](O)[C@H](C)O2)C1)C(=O)c1ccccc1C3=O [IDARUBICIN]
Not Active: IC50 [1] | Ki [1] | IC50 (B2 bradykinin receptor) | IC50 [2] | Ki [2] | IC50 [3] | Ki [3] | IC50 [4] | Ki [4] | IC50 [5] | IC50 [6] | IC50 [7]

O=C(O)c1ccccc1 [BENZOIC ACID]
Not Active: IC50 [1] | Ki [1] | IC50 (B2 bradykinin receptor) | IC50 [2] | Ki [2] | IC50 [3] | Ki [3] | IC50 [4] | Ki [4] | IC50 [5] | IC50 [6] | IC50 [7]

O=C(Nc1ccc(Cl)c(Cl)c1)c1cc(Cl)cc(Cl)c1O [3,3',4',5-TETRACHLOROSALICYLANILIDE]
Not Active: IC50 [1] | Ki [1] | IC50 (B2 bradykinin receptor) | IC50 [2] | Ki [2] | IC50 [3] | Ki [3] | IC50 [4] | Ki [4] | IC50 [5] | IC50 [6] | IC50 [7]

CC(C)NCC(O)COc1ccc(CC(N)=O)cc1 (stereo not given) [ATENOLOL]
Not Active: IC50 [1] | Ki [1] | IC50 (B2 bradykinin receptor) | IC50 [2] | Ki [2] | IC50 [3] | Ki [3] | IC50 [4] | Ki [4] | IC50 [5] | IC50 [6] | IC50 [7]

OC[C@H]1O[C@@H]2O[C@H]3[C@H](O)[C@@H](O)[C@@H](O[C@H]4[C@H](O)[C@@H](O)[C@@H](O[C@H]5[C@H](O)[C@@H](O)[C@@H](O[C@H]6[C@H](O)[C@@H](O)[C@@H](O[C@H]7[C@H](O)[C@@H](O)[C@@H](O[C@H]1[C@H](O)[C@H]2O)O[C@@H]7CO)O[C@@H]6CO)O[C@@H]5CO)O[C@@H]4CO)O[C@@H]3CO [ALFADEX]
Not Active: IC50 [1] | Ki [1] | IC50 (B2 bradykinin receptor) | IC50 [2] | Ki [2] | IC50 [3] | Ki [3] | IC50 [4] | Ki [4] | IC50 [5] | IC50 [6] | IC50 [7]

CC(=O)Nc1ccc2c(c1)Cc1ccccc1-2 [2-ACETYLAMINOFLUORENE]
Not Active: IC50 [1] | Ki [1] | IC50 (B2 bradykinin receptor) | IC50 [2] | Ki [2] | IC50 [3] | Ki [3] | IC50 [4] | Ki [4] | IC50 [5] | IC50 [6] | IC50 [7]

CCN1CCN(c2cc3c(cc2F)c(=O)c(C(=O)O)cn3C2CC2)CC1 [ENROFLOXACIN]
Not Active: IC50 [1] | Ki [1] | IC50 (B2 bradykinin receptor) | IC50 [2] | Ki [2] | IC50 [3] | Ki [3] | IC50 [4] | Ki [4] | IC50 [5] | IC50 [6] | IC50 [7]

O=C(O)CO [GLYCOLIC ACID]
Not Active: IC50 [1] | Ki [1] | IC50 (B2 bradykinin receptor) | IC50 [2] | Ki [2] | IC50 [3] | Ki [3] | IC50 [4] | Ki [4] | IC50 [5] | IC50 [6] | IC50 [7]

— ChEMBL document CHEMBL1909046, “DrugMatrix in vitro pharmacology data”
